Like-named read-outs stand apart in the source and are kept apart here.

Assay [1] relates to hepatoblastoma (HePG-2). The assay is described as follows: MTT cytotoxicity assay, HePG-2. The note with it: Homo sapiens, HepG2, read-out: IC50 HePG-2.
The test system of assay [2] is breast adenocarcinoma (MCF-7). The assay is described as follows: MTT cytotoxicity assay, MCF-7. As to conditions: Homo sapiens, MCF7, read-out: IC50 MCF-7. A general note: Formazan colour is commonly taken as a measure of viable cells.
Assay [3] deals with human colorectal carcinoma (HCT-116). The assay is described as follows: MTT cytotoxicity assay, HCT-116. As to conditions: Homo sapiens, HCT-116, read-out: IC50 HCT-116.
The subject of assay [4] is HCT-116, HePG-2, and MCF-7. The assay is described as follows: MTT cytotoxicity, summary over the examined cancer cell lines. The note with it: Homo sapiens, read-out: IC50 range against the selected cell lines.
Assay [5] deals with WI-38 normal fibroblast cell line. The assay is described as follows: MTT cytotoxicity against normal human cells. It counts as cell-based. The note with it: Homo sapiens. How it is done: The evaluation was conducted using a 3-(4,5-dimethylthiazol-2-yl)-2,5-diphenyltetrazolium bromide (MTT) assay, as described by the authors of [50, 51]. The cell lines were obtained from ATCC. For comparative purposes, standard drugs, such as doxorubicin and erlotinib, were employed.

Assay [6] has as its system anti-apoptotic protein MCL-1 in MCF-7. The assay is described as follows: MCL-1 expression in MCF-7 cells (ELISA). It counts as cell-based, human. How it is done: (§1) Apoptosis is regulated by intrinsic pathways such as the B-cell lymphoma-2 (BCL-2) family. […] MCL-1, one of the BCL-2 family members, is likely to have a significant role in cell death. The expression of MCL-1 and BCL-2 in MCF-7 cells treated with different concentrations was studied.
(§2) Apoptosis of the MCF-7 cancer cell line was measured using the Human MCL1eia kit (ELISA Kit) for the MCL-1 enzyme assay and the Invitrogen Zymed® Bcl-2 ELISA Kit for the BCL-2 enzyme assay. The ROBONIK P2000 ELISA READER was used for analysis.
On the technique in general: ELISA stands for enzyme-linked immunosorbent assay.

For assay [7], the system named is MCF-7 cell line. The assay is described as follows: Cell cycle analysis (propidium iodide, flow cytometry). It counts as cell-based, human. An excerpt:
Cell cycle analysis is used to quantify DNA content distribution via flow cytometry at various cell cycle stages (pre-G1, G1, S, and G2/M). Compound 24 was selected to analyze its effect on cell cycle progression in the MCF-7 cell line at different concentrations.
Cancer cell line MCF-7 was stained with ab139418_Propidium Iodide (DNA stain) and analyzed using a FACSCalibur flow cytometer.

Assay [8] has as its system anti-apoptotic protein BCL-2 in MCF-7. The assay is described as follows: BCL-2 expression in MCF-7 cells (ELISA). It counts as cell-based, human. How it is done:
as §1, §2

Consider `CC(=NNC(=O)CN1C(=O)NC(c2ccccc2)(c2ccccc2)C1=O)c1ccc([N+](=O)[O-])cc1` [Compound 19, 2-(2,5-Dioxo-4,4-diphenylimidazolidin-1-yl)-N′-(1-(4-nitrophenyl)ethylidene)acetohydrazide], for which the results for the IC50 in assay [1], in assay [2] and in assay [3] were 19.9 ± 1.8 µM, 20.4 ± 1.5 µM and 31.3 ± 2.1 µM, respectively.
Turning to `CC(=NNC(=O)CN1C(=O)NC(c2ccccc2)(c2ccccc2)C1=O)c1cccc2ccccc12` [Compound 23, 2-(2,5-Dioxo-4,4-diphenylimidazolidin-1-yl)-N′-(1-(naphthalen-1-yl)ethylidene)acetohydrazide], the 50% inhibitory concentration (IC50) came out at 31.8 ± 2.1 µM in assay [1], 28.1 ± 1.7 µM in assay [2] and 34.4 ± 2.3 µM in assay [3].
In the case of `COc1cccc2c1C(=O)c1c(O)c3c(c(O)c1C2=O)C[C@@](O)(C(=O)CO)C[C@@H]3O[C@H]1C[C@H](N)[C@H](O)[C@H](C)O1` [Doxorubicin, reference compound], the figures for the IC50 in assay [1] and in assay [4] were 4.5 ± 0.2 µM and 4.17 to 5.23 µM, respectively.
Regarding `CC(=NNC(=O)CN1C(=O)NC(c2ccccc2)(c2ccccc2)C1=O)c1ccc(C(F)(F)F)cc1` [Compound 12, 2-(2,5-Dioxo-4,4-diphenylimidazolidin-1-yl)-N′-(1-(4-(trifluoromethyl)phenyl)ethylidene)acetohydrazide], the IC50 in assay [1] turned out to be 47.7 ± 2.7 µM; in assay [2] it was 45.8 ± 2.4 µM; in assay [3], 52.5 ± 3 µM.
For `CC(=NNC(=O)CN1C(=O)NC(c2ccccc2)(c2ccccc2)C1=O)c1ccncc1` [Compound 22, 2-(2,5-Dioxo-4,4-diphenylimidazolidin-1-yl)-N′-(1-(pyridin-4-yl)ethylidene)acetohydrazide], the half-maximal inhibitory concentration (IC50) in assay [1] is 17.2 ± 1.6 µM; in assay [2], 13.1 ± 1.1 µM; in assay [3] it was 26 ± 1.9 µM.
On to `CC(=NNC(=O)CN1C(=O)NC(c2ccccc2)(c2ccccc2)C1=O)c1ccccc1C` [Compound 8, 2-(2,5-Dioxo-4,4-diphenylimidazolidin-1-yl)-N′-(1-(o-tolyl)ethylidene)acetohydrazide], for which the values for the half-inhibitory concentration (IC50) in assay [1], in assay [2] and in assay [3] were 25.4 ± 1.8 µM, 34.1 ± 2 µM and 37.6 ± 2.3 µM, respectively.
Take `COc1ccccc1C(C)=NNC(=O)CN1C(=O)NC(c2ccccc2)(c2ccccc2)C1=O` [Compound 14, 2-(2,5-Dioxo-4,4-diphenylimidazolidin-1-yl)-N′-(1-(2-methoxyphenyl)ethylidene)acetohydrazide]: the half-maximal inhibitory concentration (IC50) in assay [1] was determined as 63.3 ± 3.8 µM; in assay [2], 59.1 ± 3.4 µM; in assay [3], 74 ± 3.9 µM.
With `CC(=NNC(=O)CN1C(=O)NC(c2ccccc2)(c2ccccc2)C1=O)c1cccs1` [Compound 26, 2-(2,5-Dioxo-4,4-diphenylimidazolidin-1-yl)-N′-(1-(thiophen-2-yl)ethylidene)acetohydrazide], the values for the IC50 in assay [1], in assay [2] and in assay [3] were 32.3 ± 2.2 µM, 76.8 ± 4.2 µM and 87.5 ± 4.6 µM, respectively.
As to `CC(=NNC(=O)CN1C(=O)NC(c2ccccc2)(c2ccccc2)C1=O)c1ccccc1` [Compound 7, 2-(2,5-Dioxo-4,4-diphenylimidazolidin-1-yl)-N′-(1-phenylethylidene)acetohydrazide], the half-maximal inhibitory concentration (IC50) is 55.8 ± 3.3 µM in assay [1], 38.3 ± 2.2 µM in assay [2] and 47.5 ± 2.8 µM in assay [3].
For `COc1cccc(C(C)=NNC(=O)CN2C(=O)NC(c3ccccc3)(c3ccccc3)C2=O)c1` [Compound 15, 2-(2,5-Dioxo-4,4-diphenylimidazolidin-1-yl)-N′-(1-(3-methoxyphenyl)ethylidene)acetohydrazide], the IC50 in assay [1] came out at 45.1 ± 2.5 µM; in assay [2], 55.3 ± 3.2 µM; in assay [3], 53.9 ± 3.1 µM.
Take `CC(=NNC(=O)CN1C(=O)NC(c2ccccc2)(c2ccccc2)C1=O)c1ccccn1` [Compound 20, 2-(2,5-Dioxo-4,4-diphenylimidazolidin-1-yl)-N′-(1-(pyridin-2-yl)ethylidene)acetohydrazide]: the concentration for half-maximal inhibition (IC50) was 49.1 ± 2.8 µM in assay [1], 32.4 ± 1.9 µM in assay [2] and 46.7 ± 2.7 µM in assay [3].
Regarding `COc1ccc(C(C)=NNC(=O)CN2C(=O)NC(c3ccccc3)(c3ccccc3)C2=O)cc1` [Compound 16, 2-(2,5-Dioxo-4,4-diphenylimidazolidin-1-yl)-N′-(1-(4-methoxyphenyl)ethylidene)acetohydrazide], the IC50 in assay [1] was 27.3 ± 2 µM; in assay [2], 35.8 ± 2.1 µM; in assay [3] it was 36.5 ± 2.4 µM.
For `C#Cc1cccc(Nc2ncnc3cc(OCCOC)c(OCCOC)cc23)c1` [Erlotinib, reference compound], the half-inhibitory concentration (IC50) in assay [1] was 7.9 ± 0.6 µM; in assay [5] (WI-38, read-out: IC50 WI-38) it was 46.5 µM; in assay [2], 5.18 ± 0.4 µM; in assay [4], 5.18 to 8.53 µM; in assay [3], 8.53 ± 0.5 µM. The figures for the MCL-1 expression level in assay [6] (2 µM) and in assay [6] (10 μM) were 560.59 pg/mL and 162.37 pg/mL, respectively. In addition, the results for the “Comment (cell cycle arrest)” value in assay [7] and in assay [7] (listed as erlotinib) were “Cell cycle arrest at G2/M” and “cell cycle arrest appeared at the G2/M phase”, respectively. Moreover, the “%G0–G1” value is given as 46.12% in assay [7] (2 µM) and 35.89% in assay [7] (10 μM). The “%G2/M” value in assay [7] (2 µM) is on record as 31.05%; in assay [7] (10 μM), 48.39%. Moreover, the “%S” value in assay [7] (2 µM) came out at 22.83%; in assay [7] (10 μM), 15.72%. Further, the BCL-2 expression level was 13.96 ng/mL in assay [8] (2 µM) and 3.73 ng/mL in assay [8] (10 μM).
`CC(=NNC(=O)CN1C(=O)NC(c2ccccc2)(c2ccccc2)C1=O)c1ccc(F)cc1` [Compound 11, 2-(2,5-Dioxo-4,4-diphenylimidazolidin-1-yl)-N′-(1-(4-fluorophenyl)ethylidene)acetohydrazide]: the figures for the IC50 in assay [1], in assay [2] and in assay [3] were 21.1 ± 1.8 µM, 14.2 ± 1.2 µM and 28.3 ± 2.1 µM, respectively.
Take `CC(=NNC(=O)CN1C(=O)NC(c2ccccc2)(c2ccccc2)C1=O)c1ccc(Cl)s1` [Compound 27, N′-(1-(5-Chlorothiophen-2-yl)ethylidene)-2-(2,5-dioxo-4,4-diphenylimidazolidin-1-yl)acetohydrazide]: the half-maximal inhibitory concentration (IC50) in assay [1] was found to be 16.8 ± 1.6 µM; in assay [2], 19.7 ± 1.5 µM; in assay [3], 33.2 ± 2.2 µM.
For the compound `CC(=NNC(=O)CN1C(=O)NC(c2ccccc2)(c2ccccc2)C1=O)c1ccc(C)cc1` [Compound 9, 2-(2,5-Dioxo-4,4-diphenylimidazolidin-1-yl)-N′-(1-(p-tolyl)ethylidene)acetohydrazide], the half-maximal inhibitory concentration (IC50) amounted to 29.7 ± 2.1 µM in assay [1], 69 ± 3.9 µM in assay [2] and 71.2 ± 3.8 µM in assay [3].
Take `COc1cc(C(C)=NNC(=O)CN2C(=O)NC(c3ccccc3)(c3ccccc3)C2=O)cc(OC)c1OC` [Compound 18, 2-(2,5-Dioxo-4,4-diphenylimidazolidin-1-yl)-N′-(1-(3,4,5-trimethoxyphenyl)ethylidene)acetohydrazide]: the IC50 in assay [1] was 37.2 ± 2.3 µM; in assay [5] (normal fibroblast WI-38, read-out: IC50 WI-38), 60.8 µM; in assay [2] it was 26 ± 1.6 µM; in assay [3], 39.6 ± 2.4 µM.
As for `COc1ccc(C(C)=NNC(=O)CN2C(=O)NC(c3ccccc3)(c3ccccc3)C2=O)cc1OC` [Compound 17, N′-(1-(3,4-Dimethoxyphenyl)ethylidene)-2-(2,5-dioxo-4,4-diphenylimidazolidin-1-yl)acetohydrazide], the IC50 in assay [1] is 19.6 ± 1.7 µM; in assay [2] it was 15.7 ± 1.3 µM; in assay [3], 26.8 ± 2 µM.
As for `CC(=NNC(=O)CN1C(=O)NC(c2ccccc2)(c2ccccc2)C1=O)c1ccco1` [Compound 25, 2-(2,5-Dioxo-4,4-diphenylimidazolidin-1-yl)-N′-(1-(furan-2-yl)ethylidene)acetohydrazide], the concentration for half-maximal inhibition (IC50) in assay [1] was found to be 34.6 ± 2.1 µM; in assay [2], 47.3 ± 2.6 µM; in assay [3] it was 49.9 ± 2.9 µM.

In general, IC50 refers to the concentration needed to halve the response being measured.
